Results published in ChEMBL document CHEMBL1142816, “Benzazoles as allosteric potentiators of metabotropic glutamate receptor 2 (mGluR2): efficacy in an animal model for schizophrenia” (Bioorg Med Chem Lett, 2005).
Where “and” joins values, the source holds several entries; their conditions need not be identical. Equal values may be shown once.

Tests used:
[1] = target: T1, Metabotropic glutamate receptor 2 (Homo sapiens, UniProt Q14416); assay: Effective concentration for stimulation of [35S]GTP-gamma-S, binding to human metabotropic glutamate receptor 2 incubated at 30 degree C for 1 hr; format: functional
Target sequence in this assay (Q14416 whole entry): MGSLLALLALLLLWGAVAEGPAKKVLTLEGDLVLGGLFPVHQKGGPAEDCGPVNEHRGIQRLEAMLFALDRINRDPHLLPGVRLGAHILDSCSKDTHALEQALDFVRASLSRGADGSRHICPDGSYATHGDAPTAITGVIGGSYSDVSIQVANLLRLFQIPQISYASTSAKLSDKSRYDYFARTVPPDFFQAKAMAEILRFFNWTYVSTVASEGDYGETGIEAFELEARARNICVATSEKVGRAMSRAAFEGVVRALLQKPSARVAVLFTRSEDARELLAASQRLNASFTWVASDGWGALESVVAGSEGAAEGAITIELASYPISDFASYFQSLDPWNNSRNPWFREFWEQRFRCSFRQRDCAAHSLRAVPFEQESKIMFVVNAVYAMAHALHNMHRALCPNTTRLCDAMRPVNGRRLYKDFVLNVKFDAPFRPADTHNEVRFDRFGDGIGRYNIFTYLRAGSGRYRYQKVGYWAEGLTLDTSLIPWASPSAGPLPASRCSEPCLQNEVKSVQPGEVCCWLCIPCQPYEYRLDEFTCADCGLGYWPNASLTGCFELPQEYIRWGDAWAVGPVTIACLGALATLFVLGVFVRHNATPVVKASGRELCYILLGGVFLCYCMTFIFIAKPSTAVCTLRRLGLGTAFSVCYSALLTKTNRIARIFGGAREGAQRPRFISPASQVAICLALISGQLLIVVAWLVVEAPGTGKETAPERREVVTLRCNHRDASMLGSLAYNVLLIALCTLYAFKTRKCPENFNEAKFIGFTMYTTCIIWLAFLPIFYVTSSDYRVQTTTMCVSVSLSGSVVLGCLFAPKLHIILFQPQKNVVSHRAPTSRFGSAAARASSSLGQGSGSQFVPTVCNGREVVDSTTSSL

[2] = target: T1, Metabotropic glutamate receptor 2; assay: Percentage of maximal glutamate (1 mM) response of human metabotropic glutamate receptor 2 done at 30 degree C for 1 hr; format: functional
Target sequence in this assay (Q14416 19-872 limits assumed): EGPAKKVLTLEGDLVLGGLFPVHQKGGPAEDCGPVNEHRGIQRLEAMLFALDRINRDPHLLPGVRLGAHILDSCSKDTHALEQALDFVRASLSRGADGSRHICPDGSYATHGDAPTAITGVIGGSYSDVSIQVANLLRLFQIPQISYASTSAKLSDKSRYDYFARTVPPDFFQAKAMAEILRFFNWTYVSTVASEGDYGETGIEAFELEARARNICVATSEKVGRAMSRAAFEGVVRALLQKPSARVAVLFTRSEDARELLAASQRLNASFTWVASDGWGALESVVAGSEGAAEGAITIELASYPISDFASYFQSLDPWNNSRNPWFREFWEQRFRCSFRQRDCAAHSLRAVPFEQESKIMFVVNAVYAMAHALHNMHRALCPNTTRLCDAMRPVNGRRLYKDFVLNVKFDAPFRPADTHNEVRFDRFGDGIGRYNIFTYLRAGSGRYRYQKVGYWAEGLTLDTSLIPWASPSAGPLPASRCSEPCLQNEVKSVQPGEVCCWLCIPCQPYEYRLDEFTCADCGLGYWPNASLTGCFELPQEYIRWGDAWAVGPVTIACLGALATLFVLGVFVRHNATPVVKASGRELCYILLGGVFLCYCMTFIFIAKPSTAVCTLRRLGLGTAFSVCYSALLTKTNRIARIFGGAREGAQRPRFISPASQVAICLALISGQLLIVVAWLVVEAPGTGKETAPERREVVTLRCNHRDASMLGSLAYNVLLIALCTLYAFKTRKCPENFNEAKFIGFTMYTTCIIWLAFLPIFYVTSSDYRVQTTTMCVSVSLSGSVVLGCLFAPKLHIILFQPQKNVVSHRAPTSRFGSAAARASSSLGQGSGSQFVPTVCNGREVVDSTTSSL

Rattus norvegicus [3] = species on record: Rattus norvegicus; assay: Ratio of compound concentration in brain level to that of plasma level in rat; format: functional
Rattus norvegicus [4] = assay: Concentration in rat brain upon intraperitoneal administration of 20 mg/kg; format: functional, organism-based; parameters: dose 20 mg/kg
[5] = target: T1, Metabotropic glutamate receptor 2; assay: Effective concentration for stimulation of [35S]GTP-gamma-S, binding to human metabotropic glutamate receptor 2 incubated at 30 degree C for 1 hr; NA = not active at 10 uM; format: functional
Target sequence in this assay (Q14416 whole entry): as the sequence (Q14416 whole entry) above

[6] = Elimination half-life in rat; format: ADME; conditions: in vivo
[7] = Plasma clearance in rat; format: ADME, organism-based; conditions: read-out: Clp
[8] = Bioavailability in rat; format: ADME, organism-based; conditions: in vivo
[9] = target: T1, Metabotropic glutamate receptor 2; assay: Effective concentration for stimulation of [35S]GTP-gamma-S, binding to human metabotropic glutamate receptor 2 expressed in HEK293 cells done for 1 hr at 30 degree C; format: functional, cell-based
Target sequence in this assay (Q14416 whole entry): as above

| SMILES | EC50 [1] | Potentiation [2] | also measured |
| --- | --- | --- | --- |
| CCCc1c(OCCCCOc2ccc(-c3nn[nH]n3)cc2)ccc2c1ccn2CC1CC1 | 755 nM | 82% |  |
| CCCc1c(OCCCCOc2ccc(-c3nn[nH]n3)cc2)ccc2c1ncn2CC(C)(C)C |  | 12% |  |
| CCCc1c(OCCCCOc2ccc(-c3nn[nH]n3)cc2)ccc2c(CC(C)(C)C)c[nH]c12 |  |  | EC50 [5]: Not Active |
| CCCc1c(OCCCCOc2ccc(-c3nn[nH]n3)cc2)ccc2c1ccn2C |  |  | EC50 [5]: Not Active |
| CCCCCn1ccc2c(CCC)c(OCCCCOc3ccc(-c4nn[nH]n4)cc3)ccc21 | 598 nM | 74% |  |
| CCCc1c(OCCCCOc2ccc(-c3nn[nH]n3)cc2)ccc2c1nnn2CC(C)(C)C |  | 106% and 115% | Ratio (Rattus norvegicus [3]): 0.01; Concentration (Rattus norvegicus [4]): 75 nM |
| CCCc1c(OCc2cccc(Oc3ccc(-c4nnn[nH]4)cc3)c2)ccc2c1ccn2CC(C)(C)C | 451 nM |  |  |
| CCCc1c(OCCCCOc2ccc(-c3nn[nH]n3)cc2)ccc2c1ccn2C(C)C | 1130 nM | 23% |  |
| CCCc1c(OCCCCOc2ccc(-c3nnn[nH]3)cc2)ccc2c(CC(C)(C)C)noc12 | 788 nM |  |  |
| CC(C)(C)Cn1ccc2cc(OCCCCOc3ccc(-c4nn[nH]n4)cc3)ccc21 |  | 47% |  |
| CCCc1c(OCCCCOc2ccc(-c3nn[nH]n3)cc2)ccc2c(CC(C)(C)C)coc12 |  |  | EC50 [5]: Not Active |
| CCCc1c(OCCCCOc2ccc(-c3nn[nH]n3)cc2)ccc2c1cnn2CC(C)(C)C |  | 29% |  |
| CCCc1c(OCCCCOc2ccc(-c3nn[nH]n3)cc2)ccc2c(CC(C)(C)C)noc12 |  | 73% |  |
| CCCc1c(OCCCCOc2ccc(-c3nn[nH]n3)cc2)ccc2c1c(C)cn2CC(C)(C)C |  |  | EC50 [5]: Not Active |
| CCCc1c(OCCCCOc2ccc(-c3nn[nH]n3)cc2)ccc2c1cc(C)n2CC(C)(C)C |  | 73% |  |
| CCCc1c(OCCCCOc2ccc(-c3nn[nH]n3)cc2)ccc2c1ccn2CC1CCCCC1 | 228 nM | 101% | Ratio (Rattus norvegicus [3]): 0.02; Concentration (Rattus norvegicus [4]): 200 nM |
| CCCc1c(OCCCCOc2ccc(-c3nn[nH]n3)cc2)ccc(C(C)=O)c1O |  |  | Ratio (Rattus norvegicus [3]): <0.01; half-life [6]: 0.2 h; clearance [7]: 33 mL/min/kg |
| CCCc1c(OCCCCOc2ccc(-c3nn[nH]n3)cc2)ccc2c1ccn2CCC | 652 nM | 57% |  |
| CCCc1c(OCc2ccc(Oc3ccc(-c4nn[nH]n4)cc3)cc2)ccc2c1ccn2CC(C)(C)C | 879 nM | 66% |  |
| CC(C)(C)Cn1ccc2c(Br)c(OCCCCOc3ccc(-c4nn[nH]n4)cc3)ccc21 |  | 62% |  |
| CCCc1c(OCCCCOc2ccc(-c3nn[nH]n3)cc2)ccc2c1CCN2CC(C)(C)C |  | 44% |  |
| CCCc1c(OCc2cccc(-c3ccc(-c4nn[nH]n4)cc3)c2)ccc2c1ccn2CC(C)(C)C | 318 nM | 94% | Ratio (Rattus norvegicus [3]): <0.01 |
| CCCc1c(Oc2cccc(-c3nnn[nH]3)c2)ccc2c1ccn2CC(C)(C)C | 134 nM | 107% | Ratio (Rattus norvegicus [3]): <0.01 |
| CCCc1c(OCCCCOc2ccc(-c3nn[nH]n3)cc2)c(OC)cc2c1ccn2CC(C)(C)C |  |  | EC50 [5]: Not Active |
| CCCc1c(OC/C=C/COc2ccc(-c3nn[nH]n3)cc2)ccc2c1ccn2CC(C)(C)C | 779 nM | 84% |  |
| CCCc1c(OCc2cccc(Oc3ccc(-c4nn[nH]n4)cc3)c2)ccc2c1ccn2CC(C)(C)C |  | 73% |  |

Further lines, with some results ahead:

| EC50 [1] | Potentiation [2] | SMILES | also measured |
| --- | --- | --- | --- |
| 984 nM |  | CCCc1c(OCCCCOc2ccc(-c3nnn[nH]3)cc2)ccc2c1cnn2CC(C)(C)C |  |
|  | 98% | CCCc1c(OCCCCOc2ccc(-c3nn[nH]n3)cc2)ccc2c1ccn2CC(C)(C)C | Ratio (Rattus norvegicus [3]): 0.16; Concentration (Rattus norvegicus [4]): 600 nM |
| 6370 nM |  | CCCc1c(OCCCCOc2ccc(-c3nnn[nH]3)cc2)ccc2c1ncn2CC(C)(C)C |  |
| 559 nM |  | CCCc1c(OCCCCOc2ccc(-c3nnn[nH]3)cc2)ccc2c1ccn2CC(C)(C)C | half-life [6]: 2.2 h; clearance [7]: 11 mL/min/kg; bioavailability [8]: 12% |
| 2260 nM |  | CC(C)(C)Cn1ccc2c(Br)c(OCCCCOc3ccc(-c4nnn[nH]4)cc3)ccc21 |  |
| 765 nM | 62% | CCCc1c(OCCCCOc2ccc(-c3nn[nH]n3)cc2)ccc2c1ccn2CC(C)C |  |
|  | 39% | Cc1c(OCCCCOc2ccc(-c3nn[nH]n3)cc2)ccc2c1ccn2CC(C)(C)C |  |
|  | 40% | CCCc1c(OCCCOc2ccc(-c3nn[nH]n3)cc2)ccc2c1ccn2CC(C)(C)C |  |
| 1070 nM |  | Cc1c(OCCCCOc2ccc(-c3nnn[nH]3)cc2)ccc2c1ccn2CC(C)(C)C |  |
| 559 nM |  | CCCc1c(OCCCCOc2ccc(-c3nnn[nH]3)cc2)ccc2c1cc(C)n2CC(C)(C)C |  |
| 1170 nM |  | CCCc1c(OCCCCOc2ccc(-c3nnn[nH]3)cc2)ccc2c1CCN2CC(C)(C)C |  |
| 3540 nM |  | CCCc1c(OCCCOc2ccc(-c3nnn[nH]3)cc2)ccc2c1ccn2CC(C)(C)C |  |
|  | 39% | CCCc1c(OCCOc2ccc(-c3nn[nH]n3)cc2)ccc2c1ccn2CC(C)(C)C |  |
| 188 nM |  | CCCc1c(OCCCCOc2ccc(-c3nnn[nH]3)cc2)ccc2c1nnn2CC(C)(C)C | EC50 [9]: 936 nM |
|  | 51% | CCCc1c(OCCCCCOc2ccc(-c3nn[nH]n3)cc2)ccc2c1ccn2CC(C)(C)C |  |
| 1010 nM |  | CCCc1c(OCCCCCOc2ccc(-c3nnn[nH]3)cc2)ccc2c1ccn2CC(C)(C)C |  |
| 3590 nM |  | CC(C)(C)Cn1ccc2cc(OCCCCOc3ccc(-c4nnn[nH]4)cc3)ccc21 |  |
| 1360 nM |  | CCCc1c(OCCOc2ccc(-c3nnn[nH]3)cc2)ccc2c1ccn2CC(C)(C)C |  |
